Source: the supplement of paper PMC4862054

What follows are compounds tested on BT-474 (assay: normalised viability (% of control), CellTiter-Blue; higher = more viable cells (about 100 = DMSO control)). Conditions: 1 nM; incubation time: 72 h.
In short: (§1)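 Seeded at 20 µl suspension per well onto compound-loaded 384-well plates, breast cancer cell lines were incubated 72 h. CellTiter-Blue fluorescence at 560/590 nm was then read, with each plate normalised to vehicle (100) and a positive kill control (0). Normalised viability is reported at a single listed concentration of the series.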

Q: How did the normalised viability turn out when `Cc1cc(Nc2nc(N[C@@H](C)c3ncc(F)cn3)ncc2Cl)[nH]n1` [AZD1480] was run?
A: 137%

Same assay, conditions: 10 nM; incubation time: 72 h

Q: `COc1ccc(S(=O)(=O)Nc2cccnc2Nc2ccc(O)cc2)cc1` [ABT-751] was tested. Which normalised viability did it give?
A: 112%

Q: Which normalised viability does the source give for `COc1c2occc2cc2ccc(=O)oc12` [Methoxsalen] here?
A: 123%

Q: Which normalised viability does the source give for `C=CCN(/C=C1/C(=O)O[C@H](COC)[C@@]2(C)C1=C(O)C(=O)C1=C2[C@H](OC(C)=O)C[C@]2(C)C(=O)CC[C@@H]12)CC=C` [PX-866] here?
A: 118%

Q: How did the normalised viability turn out when `CC[C@H](CO)Nc1nc(NCc2ccccc2)c2ncn(C(C)C)c2n1` [Roscovitine] was run?
A: 109%

Same assay, conditions: 100 nM; incubation time: 72 h

Q: How did the normalised viability turn out when `Cc1cc(Nc2nc(N[C@@H](C)c3ncc(F)cn3)ncc2Cl)[nH]n1` [AZD1480] was run?
A: 108%

Same assay, conditions: 1000 nM; incubation time: 72 h

Q: `COc1ccc(S(=O)(=O)Nc2cccnc2Nc2ccc(O)cc2)cc1` [ABT-751] was tested. Which normalised viability did it give?
A: 60.7%

Q: `Cc1cc(Nc2nc(N[C@@H](C)c3ncc(F)cn3)ncc2Cl)[nH]n1` [AZD1480] was tested. Which normalised viability did it give?
A: 112%

Q: For `COc1c2occc2cc2ccc(=O)oc12` [Methoxsalen], which normalised viability is on record?
A: 102%

Q: For `C=CCN(/C=C1/C(=O)O[C@H](COC)[C@@]2(C)C1=C(O)C(=O)C1=C2[C@H](OC(C)=O)C[C@]2(C)C(=O)CC[C@@H]12)CC=C` [PX-866], which normalised viability is on record?
A: 87.3%

Q: Which normalised viability does the source give for `CC[C@H](CO)Nc1nc(NCc2ccccc2)c2ncn(C(C)C)c2n1` [Roscovitine] here?
A: 96.5%

Same assay, conditions: 10000 nM; incubation time: 72 h

Q: For `COc1ccc(S(=O)(=O)Nc2cccnc2Nc2ccc(O)cc2)cc1` [ABT-751], which normalised viability is on record?
A: 54%

Q: Which normalised viability does the source give for `COc1c2occc2cc2ccc(=O)oc12` [Methoxsalen] here?
A: 117%

Q: How did the normalised viability turn out when `C=CCN(/C=C1/C(=O)O[C@H](COC)[C@@]2(C)C1=C(O)C(=O)C1=C2[C@H](OC(C)=O)C[C@]2(C)C(=O)CC[C@@H]12)CC=C` [PX-866] was run?
A: 41.9%

Q: How did the normalised viability turn out when `CC[C@H](CO)Nc1nc(NCc2ccccc2)c2ncn(C(C)C)c2n1` [Roscovitine] was run?
A: 79.4%

These compounds were tested on BT-549 in the same assay as above. Conditions: 1 nM; incubation time: 72 h.
In short: as §1

Q: For `Cc1cc(Nc2nc(N[C@@H](C)c3ncc(F)cn3)ncc2Cl)[nH]n1` [AZD1480], which normalised viability is on record?
A: 91.7%

Same assay, conditions: 10 nM; incubation time: 72 h

Q: `COc1ccc(S(=O)(=O)Nc2cccnc2Nc2ccc(O)cc2)cc1` [ABT-751] was tested. Which normalised viability did it give?
A: 94.1%

Q: For `COc1c2occc2cc2ccc(=O)oc12` [Methoxsalen], which normalised viability is on record?
A: 90.9%

Q: For `C=CCN(/C=C1/C(=O)O[C@H](COC)[C@@]2(C)C1=C(O)C(=O)C1=C2[C@H](OC(C)=O)C[C@]2(C)C(=O)CC[C@@H]12)CC=C` [PX-866], which normalised viability is on record?
A: 87.8%

Q: Which normalised viability does the source give for `CC[C@H](CO)Nc1nc(NCc2ccccc2)c2ncn(C(C)C)c2n1` [Roscovitine] here?
A: 83.8%

Same assay, conditions: 100 nM; incubation time: 72 h

Q: With `Cc1cc(Nc2nc(N[C@@H](C)c3ncc(F)cn3)ncc2Cl)[nH]n1` [AZD1480] as the compound, how does the normalised viability read?
A: 108%

Same assay, conditions: 1000 nM; incubation time: 72 h

Q: With `COc1ccc(S(=O)(=O)Nc2cccnc2Nc2ccc(O)cc2)cc1` [ABT-751] as the compound, how does the normalised viability read?
A: 77.2%

Q: Which normalised viability does the source give for `Cc1cc(Nc2nc(N[C@@H](C)c3ncc(F)cn3)ncc2Cl)[nH]n1` [AZD1480] here?
A: 90.4%

Q: With `COc1c2occc2cc2ccc(=O)oc12` [Methoxsalen] as the compound, how does the normalised viability read?
A: 104%

Q: How did the normalised viability turn out when `C=CCN(/C=C1/C(=O)O[C@H](COC)[C@@]2(C)C1=C(O)C(=O)C1=C2[C@H](OC(C)=O)C[C@]2(C)C(=O)CC[C@@H]12)CC=C` [PX-866] was run?
A: 81.9%

Q: With `CC[C@H](CO)Nc1nc(NCc2ccccc2)c2ncn(C(C)C)c2n1` [Roscovitine] as the compound, how does the normalised viability read?
A: 84.4%

Same assay, conditions: 10000 nM; incubation time: 72 h

Q: With `COc1ccc(S(=O)(=O)Nc2cccnc2Nc2ccc(O)cc2)cc1` [ABT-751] as the compound, how does the normalised viability read?
A: 13.6%

Q: With `COc1c2occc2cc2ccc(=O)oc12` [Methoxsalen] as the compound, how does the normalised viability read?
A: 82.9%

Q: `C=CCN(/C=C1/C(=O)O[C@H](COC)[C@@]2(C)C1=C(O)C(=O)C1=C2[C@H](OC(C)=O)C[C@]2(C)C(=O)CC[C@@H]12)CC=C` [PX-866] was tested. Which normalised viability did it give?
A: 57%

Q: Which normalised viability does the source give for `CC[C@H](CO)Nc1nc(NCc2ccccc2)c2ncn(C(C)C)c2n1` [Roscovitine] here?
A: 76.4%

The compounds below were run on CAL-148 in the same assay as above. Conditions: 0.3 nM; incubation time: 72 h.
In short: as §1

Q: `Cc1cc(Nc2nc(N[C@@H](C)c3ncc(F)cn3)ncc2Cl)[nH]n1` [AZD1480] was tested. Which normalised viability did it give?
A: 93.8%

Same assay, conditions: 3 nM; incubation time: 72 h

Q: `COc1ccc(S(=O)(=O)Nc2cccnc2Nc2ccc(O)cc2)cc1` [ABT-751] was tested. Which normalised viability did it give?
A: 91.9%

Q: How did the normalised viability turn out when `Cc1cc(Nc2nc(N[C@@H](C)c3ncc(F)cn3)ncc2Cl)[nH]n1` [AZD1480] was run?
A: 97.4%

Q: For `COc1c2occc2cc2ccc(=O)oc12` [Methoxsalen], which normalised viability is on record?
A: 98.7%

Q: Which normalised viability does the source give for `C=CCN(/C=C1/C(=O)O[C@H](COC)[C@@]2(C)C1=C(O)C(=O)C1=C2[C@H](OC(C)=O)C[C@]2(C)C(=O)CC[C@@H]12)CC=C` [PX-866] here?
A: 97.2%

Q: How did the normalised viability turn out when `CC[C@H](CO)Nc1nc(NCc2ccccc2)c2ncn(C(C)C)c2n1` [Roscovitine] was run?
A: 77.4%

Same assay, conditions: 10 nM; incubation time: 72 h

Q: Which normalised viability does the source give for `Cc1cc(Nc2nc(N[C@@H](C)c3ncc(F)cn3)ncc2Cl)[nH]n1` [AZD1480] here?
A: 99.3%

Same assay, conditions: 30 nM; incubation time: 72 h

Q: How did the normalised viability turn out when `COc1ccc(S(=O)(=O)Nc2cccnc2Nc2ccc(O)cc2)cc1` [ABT-751] was run?
A: 89.2%

Q: How did the normalised viability turn out when `COc1c2occc2cc2ccc(=O)oc12` [Methoxsalen] was run?
A: 95.8%

Q: How did the normalised viability turn out when `C=CCN(/C=C1/C(=O)O[C@H](COC)[C@@]2(C)C1=C(O)C(=O)C1=C2[C@H](OC(C)=O)C[C@]2(C)C(=O)CC[C@@H]12)CC=C` [PX-866] was run?
A: 105%

Q: With `CC[C@H](CO)Nc1nc(NCc2ccccc2)c2ncn(C(C)C)c2n1` [Roscovitine] as the compound, how does the normalised viability read?
A: 85.8%

Same assay, conditions: 100 nM; incubation time: 72 h

Q: `COc1ccc(S(=O)(=O)Nc2cccnc2Nc2ccc(O)cc2)cc1` [ABT-751] was tested. Which normalised viability did it give?
A: 86.7%

Q: With `COc1c2occc2cc2ccc(=O)oc12` [Methoxsalen] as the compound, how does the normalised viability read?
A: 100%
